Values joined by “and” are separate entries in the source; they are usually repeats but may differ in a detail not shown here. Identical values can stand only once. “Also recorded” adds a separate entry of the source. d = 2'-deoxy (DNA); m = 2'-O-methyl; f = 2'-fluoro
What was measured:
c-raf mRNA = assay: Northern blot analysis of inhibition of c-raf mRNA expression in T24 cells; assay type: cell-based, human
Description: Chimeric oligonucleotides having SEQ ID NO:7 were designed using the Genbank c-raf sequence HUMRAFR (Genbank listing x03484), synthesized and tested for inhibition of c-raf mRNA expression in T24 bladder carcinoma cells using a Northern blot assay. These chimeric oligonucleotides have central “gap” regions of 6, 8 or 10 deoxynucleotides flanked by two regions of 2′-O-methyl modified nucleotides, and are shown in Table 10. Backbones were uniformly phosphorothioate. […] These oligonucleotides are preferred.
The human urinary bladder cancer cell line T24 was obtained from the American Type Culture Collection (Rockville, Md.). Cells were grown in McCoy's 5A medium with L-glutamine (GIBCO-BRL, Gaithersburg, Md.), supplemented with 10% heat-inactivated fetal calf serum and 50 U/ml each of penicillin and streptomycin. Cells were seeded on 100 mm plates. When they reached 70% confluency, they were treated with oligonucleotide. Plates were washed with 10 ml prewarmed PBS and 5 ml of OptiMEM reduced-serum medium containing 2.5 μl DOTMA. Oligonucleotide with lipofectin was then added to the desired concentration. After 4 hours of treatment, the medium was replaced with McCoy's medium. Cells were harvested 24 to 72 hours after oligonucleotide treatment and RNA was isolated using a standard CsCl purification method. [Kingston in Current Protocols in Molecular Biology, F. M. Ausubel, R. Brent, R. E. Kingston, D. D. Moore, J. A. Smith, J. G. Seidman and K. Strahl, Eds., John Wiley and Sons, New York.] Total RNA was isolated by centrifugation of cell lysates over a CsCl cushion. RNA samples were electrophoresed through 1.2% agarose-formaldehyde gels and transferred to hybridization membranes by capillary diffusion over a 12-14 hour period. The RNA was cross-linked to the membrane by exposure to UV light in a Stratalinker (Stratagene, La Jolla, Calif.) and hybridized to random-primed ^32P-labeled c-raf cDNA probe (obtained from ATCC) or G3PDH probe as a control. RNA was quantitated using a Phosphorimager (Molecular Dynamics, Sunnyvale, Calif.).

[1] = system: T24 cancer cell proliferation; assay: Antisense oligonucleotide inhibition of proliferation of cancer cells; assay type: cell-based, human; settings: for IC50: T24 cell proliferation, dose-response; for inhibited cell proliferation: T24 cells
Procedure: Antisense oligonucleotide inhibition of proliferation of cancer cells: Three 17mer oligonucleotides having the same sequence (SEQ ID NO:1), complementary to the codon 12 region of activated ras, were tested for effects on T24 cancer cell proliferation as described in Example 28. 3985 is a full phosphorothioate oligonucleotide having a 7-deoxy gap flanked by 2′-O-methyl nucleotides, and 4690 is a full phosphorothioate oligonucleotide having a 7-deoxy gap flanked by 2′-F nucleotides (C^FC^FA^F C^FA^FCd CdGdAd CdGdGd C^FG^FC^F C^FC^F, SEQ ID NO:1, nucleotides identified with an “^F” contain a […] substituent group and the remainder of the nucleotides identified with a “d” are 2′-deoxy-erythro-pentofuranosyl nucleotides).
Cells were cultured and treated with oligonucleotide essentially as described in Example 27. Cells were seeded on 60 mm plates and were treated with oligonucleotide in the presence of DOTMA when they reached 70% confluency. Time course experiment: On day 1, cells were treated with a single dose of oligonucleotide at a final concentration of 100 nM. The growth medium was changed once on day 3 and cells were counted every day for 5 days, using a counting chamber. Dose-response experiment: Various concentrations of oligonucleotide (10, 25, 50, 100 or 250 nM) were added to the cells and cells were harvested and counted 3 days later. Oligonucleotides 2570, 3985 and 4690 were tested for effects on T24 cancer cell proliferation.

H-ras = assay: ras transactivation reporter gene assay; assay type: cell-based; settings: result in words
Procedure: These 2′ modified oligonucleotides were tested for antisense activity against H-ras using the transactivation reporter gene assay described in Example 26. […] A 2′-fluoro chimeric oligonucleotide with a centered 5-deoxy gap was also active.
The expression plasmid pSV2-oli, containing an activated (codon 12, GGC-GTC) H-ras cDNA insert under control of the constitutive SV40 promoter, was a gift from Dr. Bruno Tocque (Rhone-Poulenc Sante, Vitry, France). This plasmid was used as a template to construct, by PCR, a H-ras expression plasmid under regulation of the steroid-inducible mouse mammary tumor virus (MMTV) promoter. To obtain H-ras coding sequences, the 570 bp coding region of the H-ras gene was amplified by PCR. The PCR primers were designed with unique restriction endonuclease sites in their 5′-regions to facilitate cloning. The PCR product containing the coding region of the H-ras codon 12 mutant oncogene was gel purified, digested, and gel purified once again prior to cloning. This construction was completed by cloning the insert into the expression plasmid pMAMneo (Clontech Laboratories, CA).
The ras-responsive reporter gene pRDO53 was used to detect ras expression. [Owen et al., Proc. Natl. Acad. Sci. U.S.A., 87, 3866 (1990).

ras mRNA = assay: Northern blot analysis of ras expression in T24 cells; assay type: cell-based, human; settings: for ras expression / ras mRNA levels: result in words
Procedure: The human urinary bladder cancer cell line T24 was obtained from the American Type Culture Collection (Rockville Md.). Cells were grown in McCoy's 5A medium with L-glutamine (GIBCO-BRL, Gaithersburg, Md.), supplemented with 10% heat-inactivated fetal calf serum and 50 U/ml each of penicillin and streptomycin. Cells were seeded on 100 mm plates. When they reached 70% confluency, they were treated with oligonucleotide. Plates were washed with 10 ml prewarmed PBS and 5 ml of OptiMEM (GIBCO) reduced-serum medium containing 2.5 μl DOTMA. Oligonucleotide was then added to the desired concentration. After 4 hours of treatment, the medium was replaced with McCoy's medium. Cells were harvested 48 hours after oligonucleotide treatment and RNA was isolated using a standard CsCl purification method. [Kingston in Current Protocols in Molecular Biology, F. M. Ausubel, R. Brent, R. E. Kingston, D. D. Moore, J. A. Smith, J. G. Seidman and K. Strahl, Eds., John Wiley and Sons, New York.] The human epithelioid carcinoma cell line HeLa 229 was obtained from the American Type Culture Collection (Bethesda, Md.). HeLa cells were maintained as monolayers on 6-well plates in Dulbecco's Modified Eagle's medium (DMEM) supplemented with 10% fetal bovine serum and 100 U/ml penicillin. Treatment with oligonucleotide and isolation of RNA were essentially as described above for T24 cells.
Northern hybridization: 10 μg of each RNA was electrophoresed on a 1.2% agarose/formaldehyde gel and transferred overnight to GeneBind 45 nylon membrane (Pharmacia LKB, Piscataway, N.J.) using standard methods. [Kingston in Current Protocols in Molecular Biology, F. M. Ausubel, R. Brent, R. E. Kingston, D. D. Moore, J. A. Smith, J. G. Seidman and K. Strahl, Eds., John Wiley and Sons, New York.] RNA was UV-crosslinked to the membrane. Double-stranded ^32P-labeled probes were synthesized using the Prime a Gene labeling kit (Promega, Madison Wis.). The ras probe was a SalI-NheI fragment of a cDNA clone of the activated (mutant) H-ras mRNA having a GGC-to-GTC mutation at codon-12. The control probe was G3PDH. Blots were prehybridized for 15 minutes at 68° C. with the QuickHyb hybridization solution (Stratagene, La Jolla, Calif.). The heat-denatured radioactive probe (2.5×10^6 counts/2 ml hybridization solution) mixed with 100 μl of 10 mg/ml salmon sperm DNA was added and the membrane was hybridized for 1 hour at 68° C. The blots were washed twice for 15 minutes at room temperature in 2×SSC/0.1% SDS and once for 30 minutes at 60° C. with 0.1×SSC/0.1% SDS. Blots were autoradiographed and the intensity of signal was quantitated using an ImageQuant PhosphorImager (Molecular Dynamics, Sunnyvale, Calif.). Northern blots were first hybridized with the ras probe, then stripped by boiling for 15 minutes in 0.1×SSC/0.1% SDS and rehybridized with the control G3PDH probe to check for correct sample loading.

[2] = system: 25mer oligoribonucleotide complement; assay: Melting curves with 25mer oligoribonucleotide complement; assay type: binding; settings: 17mer hybridized with 25mer oligoribonucleotide complement
Description: Other sugar modifications: The effects of other 2′ sugar modifications besides 2′-O-methyl on antisense activity in chimeric oligonucleotides have been examined. These modifications are listed in Table 4, along with the Tm values obtained when 17mer oligonucleotides having 2′-modified nucleotides flanking a 7-base deoxy gap were hybridized with a 25mer oligoribonucleotide complement as described in Example 25. […] As alkyl length increased, Tm decreased.
Absorbance vs. temperature curves were measured at 260 nm using a Gilford 260 spectrophotometer interfaced to an IBM PC computer and a Gilford Response II spectrophotometer. The buffer contained 100 mM Na^+, 10 mM phosphate and 0.1 mM EDTA, pH 7. Oligonucleotide concentration was 4 μM each strand determined from the absorbance at 85° C. and extinction coefficients calculated according to Puglisi and Tinoco [Methods in Enzymol., 180, 304 (1989). Tm values, free energies of duplex formation and association constants were obtained from fits of data to a two state model with linear sloping baselines. [Petersheim and Turner, Biochemistry, 22, 256 (1983). Reported parameters are averages of at least three experiments. For some oligonucleotides, free energies of duplex formation were also obtained from plots of Tm^−1 vs log10 (concentration). Borer et al., J. Mol. Biol., 86, 843 (1974).

[3] = system: ras-luciferase (codon-12 point mutation of activated H-ras); assay: ras-luciferase reporter gene system; assay type: cell-based, human; settings: for inhibition of ras-luciferase activity: cells expressing the mutant form of ras-luciferase, dose response, FIGS. 1 and 2
[4] = system: ras mRNA (wild-type H-ras codon-12); assay: Northern blot analysis of ras expression in HeLa cells; assay type: cell-based, human; settings: result in words
Procedure: Oligonucleotides 2570 and 2503 were also tested to determine their effects on ras expression in HeLa cells, which have a wild-type (i.e., not activated) H-ras codon-12.
The human urinary bladder cancer cell line T24 was obtained from the American Type Culture Collection (Rockville Md.). Cells were grown in McCoy's 5A medium with L-glutamine (GIBCO-BRL, Gaithersburg, Md.), supplemented with 10% heat-inactivated fetal calf serum and 50 U/ml each of penicillin and streptomycin. Cells were seeded on 100 mm plates. When they reached 70% confluency, they were treated with oligonucleotide. Plates were washed with 10 ml prewarmed PBS and 5 ml of OptiMEM (GIBCO) reduced-serum medium containing 2.5 μl DOTMA. Oligonucleotide was then added to the desired concentration. After 4 hours of treatment, the medium was replaced with McCoy's medium. Cells were harvested 48 hours after oligonucleotide treatment and RNA was isolated using a standard CsCl purification method. […]
Northern hybridization: 10 μg of each RNA was electrophoresed on a 1.2% agarose/formaldehyde gel and transferred overnight to GeneBind 45 nylon membrane (Pharmacia LKB, Piscataway, N.J.) using standard methods. […] Blots were autoradiographed and the intensity of signal was quantitated using an ImageQuant PhosphorImager (Molecular Dynamics, Sunnyvale, Calif.). […]

Substance: CTCGCCCGCTCCTCCTCCCC (all phosphorothioate, sugars by position and methylation of C not given here; further chemistry not fully specified) [ISIS 7849, chimeric 2′-O-methyl P═S c-raf oligonucleotide, 5′UTR]
- inhibition of c-raf mRNA expression (c-raf mRNA): > 70%

Substance: C^FC^FA^F C^FA^FCd CdGdAd CdGdGd C^FG^FC^F C^FC^F [Oligonucleotide 4690]
- IC50 [1]: 44 nM
- inhibited cell proliferation [1]: 93%
- antisense activity against H-ras (ras expression) (H-ras): most active
- inhibition of ras expression / decrease of ras mRNA (ras mRNA): 82%
- Tm [2]: 76.9 °C

Substance: C^MC^MA^M C^MA^MCd CdGdAd CdGdGd C^MG^MC^M C^MC^M [Oligonucleotide 3985]
- inhibition of ras-luciferase activity [3]: greatest inhibition
- IC50 [1]: 61 nM
- inhibited cell proliferation [1]: 82%
- inhibition of ras expression / decrease of ras mRNA (ras mRNA): 95% and 81%
- Tm [2]: 74.7 °C

Substance: CdCdAd CdAdCd CdGdAd CdGdGd CdGdCd CdCd [Oligonucleotide 2570, reference compound]
- selectivity toward the mutant form of ras-luciferase as compared to the normal form [3]: threefold
- inhibition of ras-luciferase activity [3]: dose-dependent inhibition
- ras expression [4]: did not inhibit ras expression in HeLa cells
- ras expression / ras mRNA levels (ras mRNA): inhibited ras expression in T24 cells; also recorded: decreased ras mRNA levels in T24 cells
- Tm [2]: 64.2 °C

Substance: Oligonucleotide 4689: SEQ ID NO:1 chimeric oligonucleotide, 2′-fluoro-modified nucleotides flanking a 5-deoxy gap (CCACACCGACGGCGCCC; sugars from the 5' end f6 d5 f6, backbone and methylation of C not given here)
- antisense activity against H-ras (ras expression) (H-ras): also active
- inhibition of ras expression / decrease of ras mRNA (ras mRNA): 63%

Substance: TCCCGCCTGTGACATGCATT (all phosphorothioate, sugars by position and methylation of C not given here; further chemistry not fully specified) [ISIS 6717, chimeric 2′-O-methyl P═S c-raf oligonucleotide, 8-deoxy gap]
- inhibition of c-raf mRNA expression (c-raf mRNA): greater than 90%

Substance: TCCGTCATCGCTCCTCAGGG [Compound 2503, reference compound]
- ras expression [4]: inhibited ras expression in HeLa cells
- inhibition of ras expression / decrease of ras mRNA (ras mRNA): 71%
- ras expression / ras mRNA levels (ras mRNA): inhibited ras expression in T24 cells

Substance: TTCTCCTCCTCCCCTGGCAG (sugars from the 5' end m12 d8, all phosphorothioate, T or U not given here) [ISIS 7854, chimeric 2′-O-methyl P═S c-raf oligonucleotide, 3′UTR]
- inhibition of c-raf mRNA expression (c-raf mRNA): > 70%

Substance: TTCTCGCCCGCTCCTCCTCC (all phosphorothioate, sugars by position and methylation of C not given here; further chemistry not fully specified) [ISIS 7856, chimeric 2′-O-methyl P═S c-raf oligonucleotide, 5′UTR]
- inhibition of c-raf mRNA expression (c-raf mRNA): > 70%

— patent publication US20080032945A1, “2'-MODIFIED OLIGONUCLEOTIDES” (Isis Pharmaceuticals, Inc., priority 1992, published 2008)
